Measured values from patent publication US20240425457A1, “COMPOSITIONS AND METHODS FOR SUPPRESSING AND/OR TREATING METABOLIC DISEASES AND/OR A CLINICAL CONDITION THEREOF” (CK Biotech Inc., priority 2018, published 2024).
“Also recorded” adds a separate entry of the source.

Assays:
HFD-fed mice = assay: HFD-induced obesity/diabetes mice, 5-day oral courses at weeks 8/9 and 12; type: in vivo; conditions: for fasting glucose level: A3334, A3051, I3O 25, sitagliptin 50, metformin 100 mg/kg
Excerpt: Animals. The generation of Cxxc5^−/− mice has been described previously. Cxxc5 heterozygous mice were intercrossed for four generations to obtain littermate wild-type and Cxxc5^−/− mice and were maintained on a C57BL/6 background. Six-week-old Cxxc5^+/+ and Cxxc5^−/− mice were fed HFD for 8 weeks. Wild-type male C57BL/6 mice (KOATECH, Seoul, Korea) were fed HFD consisting of 60% calories from fat (Research Diet, D12492) for 8 weeks. To validate that the insulin resistance mouse model was successfully established, fasting glucose levels were assessed with a One Touch Ultra glucometer (LifeScan). Subsequently, each HFD-fed mouse with a fasting glucose level higher than 16.7 mmol/L was orally administered A3334 (25 mg kg^−1), sitagliptin (50 mg kg^−1), or metformin (100 mg kg^−1) each day for 5 days at weeks 8 and 12. After the removal of the drugs, mice were maintained for 3 weeks on the HFD. To monitor pancreas regeneration, six-week-old Cxxc5^+/+ and Cxxc5^−/− mice were fed an HFD as above. After dietary treatment for 4 weeks, the mice were intraperitoneally injected with STZ (50 mg/kg/d) for 1 week and the control group were injected with saline. After 2 weeks, Cxxc5^+/+ mice were administered A3334 (25 mg kg^−1) and sitagliptin (50 mg kg^−1) per day by oral gavage for 4 weeks. For GTT or ITT, mice were injected with D-glucose (1.5 g/kg body weight) after overnight starvation or human insulin (0.75 units/kg body weight) after 4 h starvation, respectively. Tail blood was drawn at 0, 15, 30, 60, 120, 180 min intervals and blood glucose level was measured with a One Touch Ultra glucometer. All mice were maintained under temperature-controlled and light-controlled (standard 12 h light/dark cycle) conditions and provided with food and water ad libitum. All protocols were reviewed and approved by the Institutional Review Board of Severance Hospital, Yonsei University College of Medicine (09-013).
Blood chemistry. Total blood of mice was collected by cardiac puncture after fasting. The blood was allowed to clot for 30 min and was then centrifuged for 10 min at 1,000×g to obtain supernatant to measure metabolic parameters. ELISA assay kits were used to assess serum insulin (Millipore), serum FFA (Cayman Chemical), serum adiponectin (ABclonal). The insulin function test was evaluated by HOMA-IR and was calculated as fasting plasma glucose (m mol/l)×fasting serum insulin (mU/l)/22.5. Serum chemistry variables included total cholesterol, HDL-cholesterol, glucose, TG, ALT, AST, ALP, Ca, and Mg concentration. The calibration of serum parameters was performed using the quality control card supplied with the FUJI DRI-CHEM slides whenever slides from a new lot were used. […]
Hematoxylin and eosin (H&E) staining. Dissected tissues were fixed in 4% neutral paraformaldehyde and embedded in paraffin. The paraffin sections were cut at a thickness of 4 μm and subjected to H&E staining. The adipocyte cell size was measured in 20 randomly chosen microscopic areas from 3 independent animals using a Nikon bright-field optical microscope (Nikon TE-2000U). The average adipocyte size was determined using Image J software. […]
Metabolic monitoring and body composition. Metabolic performance (energy intake and energy expenditure) was studied using a PHENOMASTER automated combined indirect calorimetry system (TSE system GmBH). The mice were first acclimated for 24 h in a metabolic chamber and were provided with food and water. They were then subsequently evaluated for 3 days to measure oxygen consumption (VO2), carbon dioxide production (VCO2), ambulatory counts, and respiratory exchange ratio. An LF50 body composition analyzer (Bruker) was used to determine body composition (lean body mass and total body fat) of the mice. The temperature for these studies remained at 22° C., with a 12 h light/dark cycle. Standard in-house software was used for energy expenditure.
Quantitative real-time polymerase chain reaction (PCR). […]

db/db diabetes mice = assay: db/db diabetes mice; type: in vivo; conditions: 1 and 2 weeks of treatment
[1] = tested on: HFD-induced diabetes mice; assay: HFD-induced diabetes mice, A3334 versus rosiglitazone, one 5-day course; type: in vivo
Excerpt: Referring now to FIG. 37A-37E, C57BL/6N mice were fed HFD for 8 weeks to induce diabetes. Then, the mice were maintained on HFD and treated with either 25 mpk A3334 or 25 mpk rosiglitazone (RSG) once per day for next 5 days. Then, the mice were maintained HFD condition without any drug treatments (e.g., A3334 or RSG) for the next several weeks. Rosiglitazone (RSG) is a diabetes drug in thiazolidinedione (TZD) class which works as an insulin sensitizer functioning via binding PPAR in fat cells.
Referring now to FIG. 45A-45F, C57BL/6N mice were induced diabetes by HFD for 8 weeks, and then treated with A3334 (25 mpk) or RSG (25 mpk) once per day for 5 days starting at week 8 under HFD condition. Animals were sacrificed at week 11.

Wnt/β-catenin signaling = Wnt/β-catenin signaling (TOPFlash) reporter luciferase assay in HEK293-TOP cells; type: cell-based
Description: Luciferase reporter assay. HEK293-TOP cells were seeded in 24-well plates. Cells were treated with A3334 at a concentration of 1, 5, and 10 μM for 24 h. Total cell lysates were extracted with 35 μl of 5× Reporter Lysis Buffer per well according to the manufacturer's instructions (Promega). A total of 35 μl of luciferin was added and luciferase activity was measured using a Fluorstar Optima microplate reader.
Wnt/β-catenin signaling reporter luciferase assay. HEK293-TOP cells were seeded were seeded in 96-well plates at a density of 2.5×10^4 cells per well. Cells were treated with individual chemicals at a concentration of 1, 5, 10 µM for 24 h. Total cell lysates were extracted with 25 µl of 5× Reporter Lysis Buffer per well according to the manufacturer's instruction (Promega, Madison, WI). Luciferin (25 µl) was added and luciferase activity was measured using FLUOSTAR (BMG labtech, Offenburg, Germany).

[2] = HFD mice, p.o. daily 5 days at weeks 8/9 and 12
[3] = 25 mpk, 5 days from week 8, sacrifice week 11
[4] = HFD 8 weeks, then 25 mpk once per day for 5 days
[5] = HFD mice, 5-day courses at weeks 8/9 and 12, A3334 25 mg/kg, 25 mg/kg

## CO/N=C1/C(=C2/C(=O)Nc3cc(Cl)c(Cl)cc32)Nc2ccccc21 [Compound A3051, 5,6-dichloroindirubin-3′-methoxime]
HFD-fed mice; [2]
  fasting glucose level: also reduced fasting glucose. However, effects of A3051 and I3O is similar to or little bit weaker than SITA

## COc1ccc2c(c1)/C(=C1/Nc3ccccc3/C1=N\O)C(=O)N2 [Compound A3334, 5-Methoxyindirubin-3′-oxime]
db/db diabetes mice
  fasting glucose level: reduces fasting glucose levels
[1]; [3]
  liver steatosis: suppressed by A3334
  mRNA levels of lipogenesis markers in liver: suppressed by A3334
  serum insulin and total cholesterol levels: abolished by A3334
[1]; [4]
  ALT and AST in blood serum: not evident
  GTT and ITT: significant reduction of both GTT and ITT
  body weight gain: suppressed the body weight gain induced by HFD
  fasting glucose level after termination of drug treatment: maintained at low level for several weeks
[1]; HFD 8 weeks, then 25 mpk once per day for 5 days, immunostaining
  CXXC5, β-catenin, crown like structures, PPARγ and macrophage markers: suppressed overexpression of CXXC5, increased expressions of β-catenin, suppressed formation of crown like structures (CRC), and suppressed the expression of PPARγ and macrophage markers
[1]; white adipose tissue, 25 mpk
  PPARγ mRNA level: not increased by A3334
  mRNA of M1 and M2 macrophage markers: decreased and increased by A3334, respectively
  mRNA of Wnt/β-catenin signaling target genes (Dvl1, Wisp1, Fosl1): increased by A3334
Wnt/β-catenin signaling
  Wnt/β-catenin (TOPFlash) reporter activity: dose-dependent increment of the TOPFlash reporter activity
HFD-fed mice; HFD (DIO) mice
  thermogenesis and beige-fat markers in scWAT: exhibited elevated thermogenesis and beige-fat markers
HFD-fed mice; HFD mice
  Ca++ and Mg++ levels in serum: without any effect on Ca^++ and Mg^++ imbalance; also recorded: not significantly changed
  F4/80+ and CD11b+ cells / inflammation in adipose tissue: the populations of F4/80^+ and CD11b^+ cells decreased; also recorded: also suppressed by A3334
  energy expenditure and activity: increases energy expenditure via enhancing brown- and beige-fat activation; also recorded: higher energy expenditure and more active behavior than vehicle-treated mice
  mRNA of M1 and M2 macrophage marker genes in epiWAT: decreased and increased in the epiWAT of A3334-treated mice, respectively
  respiratory exchange ratio: lower respiratory exchange ratio
  serum ALT, AST, FFA (and TG): mostly suppressed by the A3334 treatment; also recorded: reduced by A3334; also recorded: also lowered by A3334; also recorded: significantly lowered by A3334
  transition of brown adipocytes to white adipocytes, UCP1 and GLUT4: suppressed by the A3334 treatment together with recovery of the levels of UCP1 and GLUT4
HFD-fed mice; HFD mice (FIG. 38G)
  serum adiponectin level: increased by A3334
HFD-fed mice; [5]
  glucose tolerance and insulin tolerance (GTT/ITT): significantly improved the systemic glucose tolerance and insulin resistance; also recorded: most significantly reduced by A3334
  insulin resistance (fasting insulin, HOMA-IR): improves diet-induced obesity and insulin resistance; also recorded: improved insulin resistance; also recorded: reduced by A3334; also recorded: mostly resolved by A3334 administration
HFD-fed mice; HFD mice, A3334 25 mg/kg
  body weight and food intake: the body weights were decreased without significant changes in food intake
  fat mass (body composition, tissue weights): reduction of overall fat mass
HFD-fed mice; HFD mice, A3334 25, metformin 100, sitagliptin 50 mpk (FIG. 38B-38F)
  levels of GTT/ITT, total cholesterol, fasting glucose, triglyceride, FFAs in serum: most significantly reduced by A3334
HFD-fed mice; HFD mice, H&E, Oil Red O
  hepatic steatosis (lipid droplets, fatty liver, hepatic TG): did not form lipid droplets with a reduction in the hepatic TG levels; also recorded: totally abolished by the A3334 treatment; also recorded: suppressed by A3334
HFD-fed mice; HFD mice, IHC
  Cxxc5 and β-catenin expression in epiWAT: Cxxc5 expression was mostly abolished and only a small amount remained in the nucleus with the elevation of nuclear β-catenin
  UCP1 protein level in BAT and scWAT: the protein level increment of the major thermogenin uncoupling protein 1 (UCP1) was confirmed in BAT and scWAT
HFD-fed mice; HFD mice, epiWAT/WAT, H&E
  crown-like structures and adipocyte size in white adipose tissue: significantly decreased the number of CLSs as well as the size of adipocytes; also recorded: suppressed HFD-induced increase in cell size and the expression of PPARγ and C/EBPα; also recorded: inhibited by the A3334 treatment
HFD-fed mice; HFD mice, light and dark periods
  oxygen consumption (VO2) and carbon dioxide production (VCO2): consumed higher oxygen (VO2) and exhaled more carbon dioxide (VCO2)
HFD-fed mice; HFD mice, mRNA
  Wnt/β-catenin signaling target genes in liver: induction of Wnt/β-catenin signaling target genes; also recorded: significantly increased by A3334 treatment
  Wnt/β-catenin target genes and lipogenesis/inflammation genes in white adipose tissue: upregulated with the regression of the lipogenesis genes; also recorded: significantly lowered by the A3334 treatment
  lipogenesis and gluconeogenesis genes in liver: repressed in the liver of A3334-treated mice; also recorded: significantly lowered by the A3334 treatment; also recorded: reduced by both A3334 and SITA, but A3334 showed better effectiveness
  thermogenesis / mitochondria biogenesis markers in BAT: significantly elevated expression levels of the key thermogenesis markers; also recorded: all increased by the A3334 treatment
HFD-fed mice; HFD mice, p.o. daily 5 days at weeks 8/9 and 12, A3334 25, sitagliptin 50, metformin 100 mg/kg
  persistence of fasting glucose control after end of treatment: prolonged effectiveness for the control of fasting glucose levels; also recorded: unexpected long-lasting glucose controlling effect; also recorded: long lasting effect in suppression of fast glucose level; also recorded: most significant and long last effects on fasting glucose control effect
HFD-fed mice; [2]
  fasting glucose level: lower in the A3334 treatment than in the sitagliptin and metformin treatment groups; also recorded: reduced similarly by treatment with all of these compounds at initial applications
HFD-fed mice; HFD mice, plasma, overnight fasted
  endocrine and metabolic parameters: total cholesterol, HDL-cholesterol, TG, adiponectin: much better effects than sitagliptin- and metformin-treated mice
HFD-fed mice; HFD mice, serum
  secretory proteins/adipokines, protein chip: decreased the expression levels of various secretory proteins
